Measured values taken from US9809521B2, “Cannabidinoid derivatives” (priority 2011, dated 2017).
Entries after “also recorded” stand apart in the source; their conditions may differ. Where two headings read alike, the source gives them in different places. Marks after values point to notes of the source that are not given here.

Assays:
MDA-MB231 cells [1] = experiment: MTT cell proliferation/viability assay
From the text: (§1) The structure of O-1442 and O-1663 are almost identical with the exception of one R group. A smaller subset of the same analogs, including O-1442 and O-1663, were further screened for their ability to inhibit 4T1 breast cancer cell viability in anticipation of running in vivo experiments in immune competent mice (TABLE 5).
(§2) To directly test whether the O-1663 CBD analog could co-target two distinct cannabinoid antitumor pathways, the effects of CBD and the O-1663 CBD analog on cell viability with multiple antagonists were probed (FIG. 25). […] The ability of the O-1663 CBD analog and CBD to inhibit invasion was next compared (FIG. 25, panel C).

4T1 cells = experiment: Cell viability assay; type: cell-based, mouse; conditions: Table 5; read-out: IC50, 4T1 cell viability
From the text: as §1

Id-1 = experiment: Quantitative Western analysis of Id-1 protein expression in MDA-MB231 cells; type: cell-based, human; conditions: 1.5 μM, two days
Protocol: Quantitative Western analysis of Id-1 Expression in MDA-MB231 cells with CBD, Δ^9-THC, or WIN 55,212-2. The ability of CBD to regulate the expression of key genes that control breast cancer cell aggressiveness and invasiveness was determined.
SAR Analysis of Id-1 expression in MDA-MB231 cells with (Abn)-CBD receptor, Abn-CBD, O-1602, CP55,940, THC, CBN, or CBD. In order to determine the structure activity relationship (“SAR”) between cannabinoids and the inhibition of Id-1, MDA-MB231 cells were treated for two days with multiple cannabinoid compounds and Id-1 protein levels were assessed.
Quantitative Western analysis of Id-1 expression in MDA-MB231 cells and U251 cells with CBD or O-1663 CBD analog. […] MDA-MB231 breast cancer cells and U251 GBM cells were treated with 1.0 μM of cannabinoid for two days and then analyzed for Id-1 protein expression by quantitative Western analysis.

MDA-MB436 cells = experiment: MTT cell proliferation assay; conditions: read-out: IC50, antiproliferative, MDA-MB436
SF126 cells = experiment: MTT cell proliferation assay; conditions: read-out: IC50, SF126
MDA-MB231 cells [2] = experiment: Boyden chamber invasion assay; type: cell-based, human; conditions: 0.1, 1.0 or 1.5 μM
Protocol: Boyden chamber MDA-MB231 cell invasion studies with CBD, Δ^9-THC, or WIN 55,212-2. Invasion is an important step towards breast cancer cell metastasis. Therefore, the effects of several cannabinoids were tested on their ability to modulate the migratory and invasiveness activity of the most aggressive human breast cancer cell line, MDA-MB231, in a reconstituted basement membrane in a Boyden chamber.
Assays using Id-1 promoter reporter transfected MDA-MB231 cells with CBD. To determine if Id-1 represented a key mediator of CBD effects in highly aggressive breast cancer cells, Id-1 was constitutively expressed into MDA-MB231 cells (+)Id-1 as described in FIG. 2. The ectopic Id-1 gene, which is not under the control of the endogenous promoter, was introduced in the cells using the pLXSN retroviral vector. As a control, cells were infected with an empty pLXSN vector (−)Id-1.
Boyden chamber MDA-MB231 cell invasion studies with CBD and O-1663 CBD analog. Boyden chamber studies for invasion by MDA-MB231 or U251 cells were performed with either CBD or O-1663 CBD analog.
as §2

U87 cells = experiment: MTT cell proliferation assay; conditions: read-out: IC50, U87; seven day treatment; 95% confidence limits in brackets
U251 cells [3] = experiment: MTT cell proliferation assay; conditions: read-out: IC50, U251; seven day treatment; 95% confidence limits in brackets
U251 cells [4] = experiment: Boyden chamber invasion assay; type: cell-based, human
From the text: Boyden chamber U251 cell invasion studies with CBD and/or Δ^9-THC. In addition to uncontrolled cell growth, a hallmark phenotype of aggressive GBM tumor cells is their ability to migrate away for the primary tumor of origin and invade into neighboring CNS tissue.

ROS = ROS measurement in MDA-MB231 cells; type: cell-based, human; conditions: two days; approximate IC50 for CBD and THC
From the text: In culture, CBD-induced generation of ROS is a primary mechanism that leads to inhibition of cell growth, invasion, and survival across multiple cancers. The generation of ROS by CBD leads to the inhibition of Id-1 expression in breast cancer cells. […] The ability of CBD and the O-1663 CBD analog to stimulate the production of ROS was next compared. […] The involvement of CB2 receptors in the productions of ROS produced by CBD and the O-1663 CBD analog was next investigated.

U251 cells [5] = experiment: Cell cycle analysis (PI staining, FACS); type: cell-based, human; conditions: THC 1.7 μM, CBD 0.4 μM
Protocol: Cell cycle analysis: U251 cells were grown in Petri dishes (100 mm×15 mm) and received drug treatments for 2 days. On the third day, the cells were harvested and centrifuged at 1200 rpm for 5 minutes. The pellet was washed 1× with PBS+1% BSA, and centrifuged again. The pellet was re-suspended in 0.5 ml of 2% paraformaldehyde (diluted with PBS) and left to fix overnight at room temperature. The next day the cells were pelleted and re-suspended in 0.5 ml 0.3% Triton in PBS and incubated for 5 minutes at room temperature. The cells were then washed 2 times with PBS+1% BSA. The cells were finally suspended in PBS (0.1% BSA) with 10 ug/ml Propidium Iodide and 100 μg/ml RNAse. The cells were incubated for 30 minutes at room temperature before being stored at 4° C. Cell cycle was measured using a FACS Calibur using Cell Quest Pro and Modfit software.
Apoptosis Studies using U251 cells with Δ^9-THC and/or CBD. […] Therefore, U251 cells were treated with THC and CBD alone or with the combination of the two, and cell cycle was analyzed using cell flow cytometery (FIG. 20). […] Additionally, there was an increase in the population of cells in the G2/M phase. These changes in G1, S and G2/M phase are hallmarks of cell cycle arrest.
(§3) Albeit, the magnitude of these effects was reduced compared to those observed with the combination treatment.

U251 cells [6] = experiment: Apoptosis (annexin staining, FACS); type: cell-based, human
Protocol: Apoptosis: Cells were grown in 6 well culture dishes and were treated with compounds of the disclosure every 24 hours for three days. […] The labeled cells were analyzed by flow cytometry. Cell Flow Cytometry in combination with PI and annexin staining was used to quantify the percentage of cells undergoing apoptosis in control and treatment groups. Percent control was calculated as annexin positive staining in treated cells/control cells×100. PI staining was used to distinguish necrotic cells from those undergoing apoptosis.
as §3
The concentrations of the individual cannabinoids (THC and CBD) were next increased in order to attempt to match levels of apoptosis produced by the combination treatment. The purpose of these experiments was to determine whether the compounds alone recruited similar pathways as compared to the combination of THC and CBD. […] However, THC alone could not produce the level of apoptosis observed with the combination treatment (FIG. 23, panel A and B).

caspase 3, 7, 9 and PARP = experiment: Western analysis of caspases and PARP in U251 cells; type: cell-based, human; conditions: THC 1.7 μM, CBD 0.4 μM, three days
From the text: Caspases play a primary role in the regulation of programmed cell death.

pERK, JNK, p38 MAPK = experiment: Western analysis of MAPK activity in U251 cells
[7] = Homo sapiens, MDA-MB-231, 72 h, read-out: IC50, antiproliferative, MDA-MB231
[8] = read-out: IC50, antiproliferative, MDA-MB231, treated for three days, MTT, confidence limits in brackets
[9] = treated for three days, MTT, confidence limits in brackets
[10] = seven day treatment, 95% confidence limits in brackets

CCCCCCC(C)(C)c1cc(OC)c(C2(O)CCCC(C)C2)c(OC)c1 (stereo not drawn) [Compound O-2137]
Percent inhibition of cell viability, MDA-MB231 (MDA-MB231 cells [1]; at 5 μM): 45%^a | IC50 (4T1 cells): 3500 nM

C=C(C)[C@@H]1CCC(C)=C[C@H]1c1c(O)cc(O)cc1CCCCC [Abn-CBD]
inhibition of Id-1 (structure activity relationship) (Id-1): No inhibition of Id-1

CCCCCc1cc(O)c(C/C=C(\C)CCC=C(C)C)c(O)c1 [CBG, cannabigerol]
IC50 (MDA-MB231 cells [1]; [7]): 2300 nM | IC50 (MDA-MB436 cells; Homo sapiens, MDA-MB-436, 72 h): 2100 nM | IC50 (SF126 cells; Homo sapiens, SF-126, 72 h): 1600 nM

Cc1c(C(=O)c2cccc3ccccc23)c2cccc3c2n1[C@H](CN1CCOCC1)CO3 [WIN 55, 212-2]
IC50 (MDA-MB231 cells [1]; [8]): 1700 nM | invasion of MDA-MB231 cells (MDA-MB231 cells [2]): significantly reduced the invasion | IC50 (MDA-MB436 cells; [9]): 2400 nM | IC50 (SF126 cells; [10]): 840 nM | IC50 (SF126 cells; three day treatment, Table 3): 1300 nM | IC50 (U87 cells): 770 nM | IC50 (U251 cells [3]): 1100 nM

C=C(C)[C@@H]1CCC(C)=C[C@H]1c1c(C)cc(O)cc1O [Compound 0-1602]
inhibition of Id-1 (structure activity relationship) (Id-1): No inhibition of Id-1

CCCCCc1cc(O)c2c(c1)OC(C)(C)c1ccc(C)cc1-2 [CBN, cannabinol]
inhibition of Id-1 (structure activity relationship) (Id-1): partially inhibit Id-1

CCCCCCC(C)(C)c1ccc([C@@H]2C[C@H](O)CC[C@H]2CCCO)c(O)c1 [CP 55, 940]
IC50 (MDA-MB231 cells [1]; [7]): 2500 nM | inhibition of Id-1 (structure activity relationship) (Id-1): less effective than CBD; also recorded: small inhibition of Id-1; also recorded: partially inhibit Id-1 | IC50 (MDA-MB436 cells; Homo sapiens, MDA-MB-436, 72 h): 1300 nM | IC50 (SF126 cells; Homo sapiens, SF-126, 72 h): 3300 nM

CCCCCc1cc(O)c2c(c1)OC(C)(C)[C@@H]1CCC(C)=C[C@@H]21 [THC, Δ^9-tetrahydrocannabinol]
IC50 (MDA-MB231 cells [1]; read-out: IC50, MDA-MB231 cell viability, Table 5): 3000 nM | IC50 (MDA-MB231 cells [1]; [8]): 1200 nM | invasion of MDA-MB231 cells (MDA-MB231 cells [2]): significantly reduced the invasion | inhibition of Id-1 (structure activity relationship) (Id-1): had no activity against Id-1; also recorded: No inhibition of Id-1 | invasiveness of U251 cells (U251 cells [4]): effectively inhibited the invasiveness of U251 cells | IC50 (U251 cells [4]; Boyden chamber, limits 49-150, read-out: predicted IC50, U251 cell invasiveness): 85 nM | IC50 (4T1 cells): 2300 nM | generation of ROS (ROS): no significant increase in ROS | cell cycle phases (U251 cells [5]): increases in the population of cells in G1 and G2/M phase and decreases in cells in S phase | block of apoptosis by CB2 antagonist SR144528 (U251 cells [6]; 0.5 μM SR144528, combination 1.7/0.4 μM, 2.5 μM THC, 2.0 μM CBD): partially blocked by the CB2 antagonist | block of apoptosis by α-tocopherol (U251 cells [6]; 20 μM α-tocopherol, combination 1.7/0.4 μM, 2.5 μM THC, 2.0 μM CBD): completely blocked by α-tocopherol | apoptosis (annexin) (U251 cells [6]; THC 1.7 μM, CBD 0.4 μM, three days): did not produce significant changes in apoptosis | caspase 3, 7, 9 and PARP (caspase 3, 7, 9 and PARP): Small increases in the activity of caspase 7, caspase 9 and PARP but not caspase 3 | IC50 (MDA-MB436 cells; [9]): 2500 nM | IC50 (SF126 cells; [10]): 900 nM | IC50 (SF126 cells; three day treatment, Table 3): 2500 nM | IC50 (U87 cells): 1600 nM | IC50 (U251 cells [3]): 1100 nM | p-ERK, higher concentrations alone (pERK, JNK, p38 MAPK; 2.5 μM Δ^9-THC, 2.0 μM CBD, three days): had no effect on p-ERK activity | pERK (pERK, JNK, p38 MAPK; THC 1.7 μM, CBD 0.4 μM, two days): no changes in pERK were observed
